{"source": "patent US20220031629A1", "about": "“OPHTHALMIC COMPOSITIONS FOR REMOVING MEIBUM OR INHIBITING MEIBUM BUILDUP” (Altaire Pharmaceuticals, Inc., priority 2020, published 2022)", "test_system": "normal human keratinocytes/stratified squamous epithelium (EPIOCULAR model)", "assay": "Ocular irritation MTT assay (EPIOCULAR model)", "format": "cell-based", "protocol": "Another ocular irritation study was done by exposing a microemulsion containing polyoxyl 35 castor oil in accordance with an embodiment of the present disclosure onto normal human keratinocytes/stratified squamous epithelium which is similar to that found in the cornea epithelium of the human eye (EPIOCULAR model), and then checking tissue viability with MTT assay for cytotoxicity after incubation in comparison with a water control (Cyprotex)."}
{"smiles": "COC(C)=O", "note": "[Methyl Acetate]", "values": [{"measurement": "Irritation Response (Irritant if ≤ 60%)", "setting": "MTT assay", "result": "Positive"}, {"measurement": "Mean Tissue Viability", "setting": "MTT assay after incubation, in comparison with water control", "result": 31.1, "unit": "%"}]}
